The values that follow come from patent EP4700095A1, “INK COMPOSITION FOR INK-JET PRINTING” (Sakata INX Corporation, priority 2023, dated 2024).

The nature of the data set: SP value (solubility parameter) calculated by formula 1. The note with it: 25°C (298 K), formula {(ΔH - RT)/(M/D)}^1/2.

The structures appear in SMILES notation.

`OCC(O)CO` [Glycerin, glycerin]: the SP value is 14.9 (cal/cm^3)^1/2.

Take `CC(O)CO` (stereo not drawn) [Propylene glycol, 1,2-propanediol]: the SP value is listed as 12.6 (cal/cm^3)^1/2.

Take `CC(O)COC(C)COC(C)CO` (stereo not drawn) [Tripropylene glycol]: the SP value is on record as 11.3 (cal/cm^3)^1/2.
